{"source": "PubChem BioAssay (NCI)", "assay_in_all_cases": "growth of human tumour cells (NCI), 48 h", "key": {"786-0 renal": {"system": "786-0 renal"}, "ACHN renal": {"system": "ACHN renal"}, "CCRF-CEM leukemia": {"system": "CCRF-CEM leukemia"}, "DU-145 prostate": {"system": "DU-145 prostate"}, "EKVX NSCLC": {"system": "EKVX NSCLC"}, "HCC-2998 colon": {"system": "HCC-2998 colon"}, "HCT-116 colon": {"system": "HCT-116 colon"}, "HL-60(TB) leukemia": {"system": "HL-60(TB) leukemia"}, "HOP-62 NSCLC": {"system": "HOP-62 NSCLC"}, "HOP-92 NSCLC": {"system": "HOP-92 NSCLC"}, "HT29 colon": {"system": "HT29 colon"}, "IGROV1 ovarian": {"system": "IGROV1 ovarian"}, "K-562 leukemia": {"system": "K-562 leukemia"}, "KM12 colon": {"system": "KM12 colon"}, "M14 melanoma": {"system": "M14 melanoma"}, "MCF7 breast": {"system": "MCF7 breast"}, "MDA-MB-231 breast": {"system": "MDA-MB-231 breast"}, "MDA-N": {"system": "MDA-N"}, "MOLT-4 leukemia": {"system": "MOLT-4 leukemia"}, "NCI-H460 lung": {"system": "NCI-H460 lung"}, "NCI-H522 lung": {"system": "NCI-H522 lung"}, "OVCAR-3 ovarian": {"system": "OVCAR-3 ovarian"}, "OVCAR-4 ovarian": {"system": "OVCAR-4 ovarian"}, "OVCAR-5 ovarian": {"system": "OVCAR-5 ovarian"}, "OVCAR-8 ovarian": {"system": "OVCAR-8 ovarian"}, "PC-3 prostate": {"system": "PC-3 prostate"}, "RPMI-8226 leukemia": {"system": "RPMI-8226 leukemia"}, "SF-268 CNS": {"system": "SF-268 CNS"}, "SF-295 CNS": {"system": "SF-295 CNS"}, "SF-539 CNS": {"system": "SF-539 CNS"}, "SK-MEL-2 melanoma": {"system": "SK-MEL-2 melanoma"}, "SK-MEL-28 melanoma": {"system": "SK-MEL-28 melanoma"}, "SK-OV-3 ovarian": {"system": "SK-OV-3 ovarian"}, "SN12C renal": {"system": "SN12C renal"}, "SNB-75 CNS": {"system": "SNB-75 CNS"}, "SW-620 colon": {"system": "SW-620 colon"}, "TK-10 renal": {"system": "TK-10 renal"}, "UACC-257 melanoma": {"system": "UACC-257 melanoma"}, "UACC-62 melanoma": {"system": "UACC-62 melanoma"}, "UO-31 renal": {"system": "UO-31 renal"}, "A549 NSCLC": {"system": "A549 NSCLC"}, "CAKI-1 renal": {"system": "CAKI-1 renal"}, "COLO 205 colon": {"system": "COLO 205 colon"}, "HCT-15 colon": {"system": "HCT-15 colon"}, "LOX IMVI melanoma": {"system": "LOX IMVI melanoma"}, "MALME-3M melanoma": {"system": "MALME-3M melanoma"}, "MDA-MB-435": {"system": "MDA-MB-435"}, "NCI-H23 lung": {"system": "NCI-H23 lung"}, "RXF 393 renal": {"system": "RXF 393 renal"}, "SK-MEL-5 melanoma": {"system": "SK-MEL-5 melanoma"}, "SR leukemia": {"system": "SR leukemia"}, "T-47D breast": {"system": "T-47D breast"}}, "note": "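Dose response: 5 concentrations. Exposure: 48 h. Format: 96-well plates. Endpoint: linear interpolation; highest concentration if not reached. TGI: concentration producing complete growth inhibition.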"}
{"smiles": "CN1C(=O)C2(Cc3cn(C45CC67SSC(CO)(C(=O)N6C4Nc4ccccc45)N(C)C7=O)c4ccccc34)SSC1(CO)C(=O)N2C", "note": "(stereo not drawn)", "values": [{"measurement": "TGI", "setting": "786-0 renal", "result": 0.0283, "unit": "µM"}, {"measurement": "TGI", "setting": "ACHN renal", "result": 0.0776, "unit": "µM"}, {"measurement": "TGI", "setting": "CCRF-CEM leukemia", "result": "> 100", "unit": "µM"}, {"measurement": "TGI", "setting": "DU-145 prostate", "result": 0.173, "unit": "µM"}, {"measurement": "TGI", "setting": "EKVX NSCLC", "result": 0.166, "unit": "µM"}, {"measurement": "TGI", "setting": "HCC-2998 colon", "result": 0.136, "unit": "µM"}, {"measurement": "TGI", "setting": "HCT-116 colon", "result": 0.115, "unit": "µM"}, {"measurement": "TGI", "setting": "HL-60(TB) leukemia", "result": "> 100", "unit": "µM"}, {"measurement": "TGI", "setting": "HOP-62 NSCLC", "result": 0.277, "unit": "µM"}, {"measurement": "TGI", "setting": "HOP-92 NSCLC", "result": 0.771, "unit": "µM"}, {"measurement": "TGI", "setting": "HT29 colon", "result": 0.0164, "unit": "µM"}, {"measurement": "TGI", "setting": "IGROV1 ovarian", "result": 0.107, "unit": "µM"}, {"measurement": "TGI", "setting": "K-562 leukemia", "result": "> 100", "unit": "µM"}, {"measurement": "TGI", "setting": "KM12 colon", "result": 0.577, "unit": "µM"}, {"measurement": "TGI", "setting": "M14 melanoma", "result": 0.0298, "unit": "µM"}, {"measurement": "TGI", "setting": "MCF7 breast", "result": 0.259, "unit": "µM"}, {"measurement": "TGI", "setting": "MDA-MB-231 breast", "result": 0.0494, "unit": "µM"}, {"measurement": "TGI", "setting": "MDA-N", "result": 0.0661, "unit": "µM"}, {"measurement": "TGI", "setting": "MOLT-4 leukemia", "result": 1.08, "unit": "µM"}, {"measurement": "TGI", "setting": "NCI-H460 lung", "result": 0.778, "unit": "µM"}, {"measurement": "TGI", "setting": "NCI-H522 lung", "result": 0.0137, "unit": "µM"}, {"measurement": "TGI", "setting": "OVCAR-3 ovarian", "result": 0.215, "unit": "µM"}, {"measurement": "TGI", "setting": "OVCAR-4 ovarian", "result": 0.0234, "unit": "µM"}, {"measurement": "TGI", "setting": "OVCAR-5 ovarian", "result": 0.289, "unit": "µM"}, {"measurement": "TGI", "setting": "OVCAR-8 ovarian", "result": 0.202, "unit": "µM"}, {"measurement": "TGI", "setting": "PC-3 prostate", "result": 0.214, "unit": "µM"}, {"measurement": "TGI", "setting": "RPMI-8226 leukemia", "result": "> 100", "unit": "µM"}, {"measurement": "TGI", "setting": "SF-268 CNS", "result": 0.265, "unit": "µM"}, {"measurement": "TGI", "setting": "SF-295 CNS", "result": 1.34, "unit": "µM"}, {"measurement": "TGI", "setting": "SF-539 CNS", "result": 0.0738, "unit": "µM"}, {"measurement": "TGI", "setting": "SK-MEL-2 melanoma", "result": 0.288, "unit": "µM"}, {"measurement": "TGI", "setting": "SK-MEL-28 melanoma", "result": 0.505, "unit": "µM"}, {"measurement": "TGI", "setting": "SK-OV-3 ovarian", "result": 1.56, "unit": "µM"}, {"measurement": "TGI", "setting": "SN12C renal", "result": 0.0696, "unit": "µM"}, {"measurement": "TGI", "setting": "SNB-75 CNS", "result": 0.345, "unit": "µM"}, {"measurement": "TGI", "setting": "SW-620 colon", "result": "> 100", "unit": "µM"}, {"measurement": "TGI", "setting": "TK-10 renal", "result": 0.103, "unit": "µM"}, {"measurement": "TGI", "setting": "UACC-257 melanoma", "result": 1.13, "unit": "µM"}, {"measurement": "TGI", "setting": "UACC-62 melanoma", "result": 0.324, "unit": "µM"}, {"measurement": "TGI", "setting": "UO-31 renal", "result": 0.179, "unit": "µM"}]}
{"smiles": "COc1ccc(Nc2nc3c([nH]2)c(=O)n(C)c(=O)n3C)cc1", "values": [{"measurement": "TGI", "setting": "786-0 renal", "result": "> 10", "unit": "µM"}, {"measurement": "TGI", "setting": "A549 NSCLC", "result": "> 10", "unit": "µM"}, {"measurement": "TGI", "setting": "CAKI-1 renal", "result": "> 10", "unit": "µM"}, {"measurement": "TGI", "setting": "CCRF-CEM leukemia", "result": "> 10", "unit": "µM"}, {"measurement": "TGI", "setting": "COLO 205 colon", "result": "> 10", "unit": "µM"}, {"measurement": "TGI", "setting": "DU-145 prostate", "result": "> 10", "unit": "µM"}, {"measurement": "TGI", "setting": "EKVX NSCLC", "result": "> 10", "unit": "µM"}, {"measurement": "TGI", "setting": "HCC-2998 colon", "result": "> 10", "unit": "µM"}, {"measurement": "TGI", "setting": "HCT-15 colon", "result": "> 10", "unit": "µM"}, {"measurement": "TGI", "setting": "HL-60(TB) leukemia", "result": "> 10", "unit": "µM"}, {"measurement": "TGI", "setting": "HOP-62 NSCLC", "result": "> 10", "unit": "µM"}, {"measurement": "TGI", "setting": "HOP-92 NSCLC", "result": "> 10", "unit": "µM"}, {"measurement": "TGI", "setting": "HT29 colon", "result": "> 10", "unit": "µM"}, {"measurement": "TGI", "setting": "IGROV1 ovarian", "result": "> 10", "unit": "µM"}, {"measurement": "TGI", "setting": "K-562 leukemia", "result": "> 10", "unit": "µM"}, {"measurement": "TGI", "setting": "KM12 colon", "result": "> 10", "unit": "µM"}, {"measurement": "TGI", "setting": "LOX IMVI melanoma", "result": "> 10", "unit": "µM"}, {"measurement": "TGI", "setting": "M14 melanoma", "result": "> 10", "unit": "µM"}, {"measurement": "TGI", "setting": "MALME-3M melanoma", "result": "> 10", "unit": "µM"}, {"measurement": "TGI", "setting": "MCF7 breast", "result": "> 10", "unit": "µM"}, {"measurement": "TGI", "setting": "MDA-MB-231 breast", "result": "> 10", "unit": "µM"}, {"measurement": "TGI", "setting": "MDA-MB-435", "result": "> 10", "unit": "µM"}, {"measurement": "TGI", "setting": "MDA-N", "result": "> 10", "unit": "µM"}, {"measurement": "TGI", "setting": "MOLT-4 leukemia", "result": "> 10", "unit": "µM"}, {"measurement": "TGI", "setting": "NCI-H23 lung", "result": "> 10", "unit": "µM"}, {"measurement": "TGI", "setting": "OVCAR-4 ovarian", "result": "> 10", "unit": "µM"}, {"measurement": "TGI", "setting": "OVCAR-8 ovarian", "result": "> 10", "unit": "µM"}, {"measurement": "TGI", "setting": "PC-3 prostate", "result": "> 10", "unit": "µM"}, {"measurement": "TGI", "setting": "RPMI-8226 leukemia", "result": "> 10", "unit": "µM"}, {"measurement": "TGI", "setting": "RXF 393 renal", "result": "> 10", "unit": "µM"}, {"measurement": "TGI", "setting": "SF-268 CNS", "result": "> 10", "unit": "µM"}, {"measurement": "TGI", "setting": "SF-295 CNS", "result": "> 10", "unit": "µM"}, {"measurement": "TGI", "setting": "SK-MEL-28 melanoma", "result": "> 10", "unit": "µM"}, {"measurement": "TGI", "setting": "SK-MEL-5 melanoma", "result": "> 10", "unit": "µM"}, {"measurement": "TGI", "setting": "SK-OV-3 ovarian", "result": "> 10", "unit": "µM"}, {"measurement": "TGI", "setting": "SN12C renal", "result": "> 10", "unit": "µM"}, {"measurement": "TGI", "setting": "SNB-75 CNS", "result": "> 10", "unit": "µM"}, {"measurement": "TGI", "setting": "SR leukemia", "result": "> 10", "unit": "µM"}, {"measurement": "TGI", "setting": "SW-620 colon", "result": "> 10", "unit": "µM"}, {"measurement": "TGI", "setting": "T-47D breast", "result": "> 10", "unit": "µM"}, {"measurement": "TGI", "setting": "TK-10 renal", "result": "> 10", "unit": "µM"}, {"measurement": "TGI", "setting": "UACC-257 melanoma", "result": "> 10", "unit": "µM"}, {"measurement": "TGI", "setting": "UACC-62 melanoma", "result": "> 10", "unit": "µM"}]}
